Reference: PubChem BioAssay AID2060888 (Molecular Pharmacology Branch, DTP, NCI, 2025)

Test system: 695427-040-R-J1-PDC complex spheroid viability
Experiment: Anticancer human tumor 695427-040-R-J1-PDC patient-derived colon adenocarcinoma cell line growth inhibition [RAS]
Conditions: for IC50: curve of first compound; for viability, T/C: stronger effect = lower value
From the text: RAS pathway inhibitors in Combinations in Complex Spheroids
A high-throughput screen of multi-cell type tumor spheroids was designed to identify active combinations of RAS pathway inhibitors and targeted small molecules. Complex spheroids include a stromal component modeled by human endothelial cells (HUVEC) and fibroblasts modeled by human mesenchymal stem cells (MSCs). The concentration ranges selected for each drug and investigational agent were based upon clinically achievable concentrations if the clinical Cmax of the agent was known.
Compounds. The drugs and investigational agents: abemaciclib (NSC768073), cobimetinib (NSC768068), divarasib (GDC6063, NSC841802), docetaxel (NSC628503), GDC-1971 (RLY-1971, NSC841576), gemcitabine (NSC613327), inavolisib (NSC800729), ipatasertib (NSC767898), KB-0742 (NSC834161), MRTX-1133 (NSC836407), osimertinib (NSC779217), RMC-4630 (NSC839698), RMC-6236 (NSC851965), RMC-6291 (NSC852671), Ro-3306 (NSC812927), sapanisertib (NSC764658), SN-38 (NSC673596), staurosporine (NSC755774), SY5609 (NSC837396), and tovorafenib (DAY101, NSC766906), were obtained from the National Cancer Institute (NCI) Developmental Therapeutics Program Chemical Repository. The FDA-approved anticancer drug set is available from the NCI Developmental Therapeutics Program. […] The stock solutions were prepared in dimethyl sulfoxide (DMSO, Sigma-Aldrich, St. Louis, MO, cat. D2650) at 800-fold the tested concentration and stored at -70 degrees C prior to their use. All drugs and investigational agents were tested over a range starting from a high concentration at or near the clinical Cmax and decreasing in half-log increments. If the clinical Cmax for an agent had not been determined, the highest concentration tested was 10 microM.
Cell Culture. All cells were maintained in an incubator at 37 degrees C and 5% CO2 with 95% humidity. The PDC lines were cultured according to standard operating procedures established by the NCI PDMR. All PDCs were thawed and cultured in Matrigel-coated flasks prepared with a working solution of 1X Ham's F-12 nutrient mix, without supplementation (Invitrogen, Waltham, MA, cat. 11765054), 100 U/mL penicillin-streptomycin (Invitrogen, cat. 15140122), and 2.5% Matrigel (Corning Inc., Corning, NY, cat. 354248) for the first three passages. The 362531-283-R-J2-PDC and 782815-120-R-J1-PDC lines were cultured in 6C/Colon 1B media, which includes advanced DMEM/F-12 (Thermo Fisher Scientific, cat. 12634028), 10 mM HEPES (Thermo Fisher Scientific, cat. 15630080), 1X GlutaMAX supplement (Thermo Fisher Scientific, cat. 35050061), 0.1 mg/mL primocin (InvivoGen, San Diego, CA, cat. ant-pm-2), 10% defined fetal bovine serum, heat inactivated (HyClone Laboratories Inc., Logan, UT, cat. SH30070.03HI), 50% L-WRN conditioned media (ATCC, cat. CRL-3276), 1.25 mM N-Acetyl-L-cysteine (Sigma-Aldrich, cat. A9165), 10 mM nicotinamide (Sigma-Aldrich, cat. N0636), 1X B-27 supplement (Thermo Fisher Scientific, cat. 17504044), 1X N-2 supplement (Thermo Fisher Scientific, cat. 17502048), 50 ng/mL human EGF (Thermo Fisher Scientific, cat. PHG0311), and 10 microM Y-27632 dihydrochloride (Tocris Bioscience, cat. 1254). The K12877-001-R-J1-PDC line was cultured in 6I media, which includes all 6C/Colon 1B media plus 10 ng/mL human FGF-10 (PeproTech, cat. 100-26), 1 ng/mL human FGF-2 (PeproTech, cat. 100-18B), 1 µM prostaglandin E2 (Tocris Bioscience, cat. 2296), […] hydrocortisone (Sigma-Aldrich, cat. H4001), and […] bovine insulin (Sigma-Aldrich, cat. I6634). The K86415-001-R-J1-PDC line was cultured in 6D media, which includes all 6C/Colon 1B media components minus the L-WRN conditioned media. The 485176-168-R4-J1-PDC was cultured in PANC media, which includes all 6C/Colon 1B media plus 100 ng/mL human FGF-10 (PeproTech, cat. 100-26), 500 nM SB-431542 (Selleckchem, cat. S1067), and 10 nM gastrin (Tocris Bioscience, cat. 3006). […]
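Further: viability read after seven days of drug exposure.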
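Wherever viability, T/C is given: 100% = DMSO vehicle control viability.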

**Q.** With CC(C)NCC(C(=O)N1CCN(c2ncnc3c2C(C)CC3O)CC1)c1ccc(Cl)cc1 (configuration not stated) + C#Cc1c(F)ccc2cc(O)cc(-c3ncc4c(N5CC6CCC(C5)N6)nc(OCC56CCCN5CC(F)C6)nc4c3F)c12 as the molecule, how does the IC50 (second compound 0.0316 µM) read?
**A.** The IC50 was over 10 µM.

**Q.** And the IC50 (second compound 0.1 µM)?
**A.** Its IC50 is over 10 µM.

**Q.** What about the IC50 (second compound 0.316 µM) of the same molecule?
**A.** The IC50 was over 10 µM.

**Q.** And the IC50 (second compound 1 µM)?
**A.** Its IC50 is over 10 µM.

**Q.** And the IC50 (second compound 3.16 µM)?
**A.** The IC50 was 0.773 µM.

**Q.** And the IC50 (second compound 10 µM)?
**A.** The IC50 was under 0.0316 µM.

**Q.** What about the viability, T/C (second compound 0.0316 µM, first compound 0.0316 µM) of the same molecule?
**A.** The viability, T/C was 111%.

**Q.** What about the viability, T/C (second compound 0.0316 µM, first compound 0.1 µM) of the same molecule?
**A.** The viability, T/C was 92.8%.

**Q.** What about the viability, T/C (second compound 0.0316 µM, first compound 0.316 µM) of the same molecule?
**A.** The viability, T/C was 89.6%.

**Q.** What about the viability, T/C (second compound 0.0316 µM, first compound 1 µM) of the same molecule?
**A.** Its viability, T/C is 84%.

**Q.** And the viability, T/C (second compound 0.0316 µM, first compound 3.16 µM)?
**A.** Its viability, T/C is 89.6%.

**Q.** What about the viability, T/C (second compound 0.0316 µM, first compound 10 µM) of the same molecule?
**A.** The viability, T/C was 103%.

**Q.** And the viability, T/C (second compound 0.1 µM, first compound 0.0316 µM)?
**A.** The viability, T/C was 92.6%.

**Q.** What about the viability, T/C (second compound 0.1 µM, first compound 0.1 µM) of the same molecule?
**A.** The viability, T/C was 78.7%.

**Q.** And the viability, T/C (second compound 0.1 µM, first compound 0.316 µM)?
**A.** Its viability, T/C is 83.7%.

**Q.** What about the viability, T/C (second compound 0.1 µM, first compound 1 µM) of the same molecule?
**A.** Its viability, T/C is 71%.

**Q.** What about the viability, T/C (second compound 0.1 µM, first compound 3.16 µM) of the same molecule?
**A.** The viability, T/C was 94.8%.

**Q.** And the viability, T/C (second compound 0.1 µM, first compound 10 µM)?
**A.** Its viability, T/C is 92.3%.

**Q.** And the viability, T/C (second compound 0.316 µM, first compound 0.0316 µM)?
**A.** Its viability, T/C is 83.7%.

**Q.** What about the viability, T/C (second compound 0.316 µM, first compound 0.1 µM) of the same molecule?
**A.** Its viability, T/C is 85.8%.

**Q.** And the viability, T/C (second compound 0.316 µM, first compound 0.316 µM)?
**A.** The viability, T/C was 82.7%.

**Q.** What about the viability, T/C (second compound 0.316 µM, first compound 1 µM) of the same molecule?
**A.** Its viability, T/C is 73.3%.

**Q.** What about the viability, T/C (second compound 0.316 µM, first compound 3.16 µM) of the same molecule?
**A.** Its viability, T/C is 76.6%.

**Q.** What about the viability, T/C (second compound 0.316 µM, first compound 10 µM) of the same molecule?
**A.** The viability, T/C was 82.2%.

**Q.** What about the viability, T/C (second compound 1 µM, first compound 0.0316 µM) of the same molecule?
**A.** The viability, T/C was 66.2%.

**Q.** What about the viability, T/C (second compound 1 µM, first compound 0.1 µM) of the same molecule?
**A.** Its viability, T/C is 60.2%.

**Q.** What about the viability, T/C (second compound 1 µM, first compound 0.316 µM) of the same molecule?
**A.** Its viability, T/C is 60.3%.

**Q.** What about the viability, T/C (second compound 1 µM, first compound 1 µM) of the same molecule?
**A.** The viability, T/C was 60.9%.

**Q.** And the viability, T/C (second compound 1 µM, first compound 3.16 µM)?
**A.** The viability, T/C was 67.2%.

**Q.** What about the viability, T/C (second compound 1 µM, first compound 10 µM) of the same molecule?
**A.** Its viability, T/C is 60.3%.

**Q.** What about the viability, T/C (second compound 3.16 µM, first compound 0.0316 µM) of the same molecule?
**A.** The viability, T/C was 59.6%.

**Q.** What about the viability, T/C (second compound 3.16 µM, first compound 0.1 µM) of the same molecule?
**A.** Its viability, T/C is 65.5%.

**Q.** And the viability, T/C (second compound 3.16 µM, first compound 0.316 µM)?
**A.** The viability, T/C was 48.7%.

**Q.** And the viability, T/C (second compound 3.16 µM, first compound 1 µM)?
**A.** Its viability, T/C is 46.3%.

**Q.** And the viability, T/C (second compound 3.16 µM, first compound 3.16 µM)?
**A.** Its viability, T/C is 48.5%.

**Q.** What about the viability, T/C (second compound 3.16 µM, first compound 10 µM) of the same molecule?
**A.** Its viability, T/C is 39.2%.

**Q.** And the viability, T/C (second compound 10 µM, first compound 0.0316 µM)?
**A.** The viability, T/C was 33.6%.

**Q.** And the viability, T/C (second compound 10 µM, first compound 0.1 µM)?
**A.** The viability, T/C was 44.1%.

**Q.** And the viability, T/C (second compound 10 µM, first compound 0.316 µM)?
**A.** Its viability, T/C is 34.4%.

**Q.** What about the viability, T/C (second compound 10 µM, first compound 1 µM) of the same molecule?
**A.** Its viability, T/C is 32.3%.

**Q.** What about the viability, T/C (second compound 10 µM, first compound 3.16 µM) of the same molecule?
**A.** The viability, T/C was 26.1%.

**Q.** What about the viability, T/C (second compound 10 µM, first compound 10 µM) of the same molecule?
**A.** The viability, T/C was 18.7%.
